Reference: patent publication US5700789A, “Antiallergic composition comprising a phosphoric diester compound” (Senju Pharmaceutical Co., Ltd., priority 1995, dated 1997)
Counter-ions that a name gives are not always drawn.

Assays:
[1] = Acute toxicity (LD50) in rats; settings: rat, in vivo, iv; i.v. (rats)
[2] = test system: palpebral edema induced by the histamine releaser Compound 48/80; assay: Palpebral edema induced by the histamine releaser Compound 48/80 in rats (topical instillation); assay type: in vivo, rat (male SD); settings: 5 μl/eye of 0.1% test material; for Inhibition rate: edema inhibition rate with respect to the control group, 4 hr after Compound 48/80; for Edema weight: male SD rats, 6 instillations, wet weight 4 hr after Compound 48/80, * p<0.001 vs control
Procedure: The effect of the compound of the invention on the palpebral edema induced by the histamine releaser Compound 48/80 (the condensation product of N-methyl-p-methoxy-phenethylamine with formaldehyde) (Sigma Chemical Company) was evaluated.
(1) 0.1% L-ascorbyl DL-α-tocopheryl phosphate sodium (Abbreviation: EPC-Na) (dissolved in physiological saline and adjusted to pH 7.0)
(2) 0.1% diphenhydramine hydrochloride (an antihistaminic) (dissolved in physiological saline)
Method: Male SD rats weighing about 180 g were used.
The rats were divided into three groups, i.e. a control group, an EPC-Na group, and a diphenhydramine HCl group, and 20 μl/eye of 0.008% Compound 48/80 (dissolved in physiological saline) was injected subconjunctivally at both lids to induce palpebral edema. Two (2), 1, and 0.5 hr before subconjunctival injection and 0.5, 1.5, and 2.5 hr after the injection, rats in the control group were topically treated with 5 μl/eye of physiological saline and those in the EPC-Na group and diphenhydramine HCl group were similarly treated with 5 μl/eye of the corresponding test materials. Four (4) hr after injection of Compound 48/80 (1.5 hr after the last instillation), the rats were sacrificed and the edematous portion of the palpebra was excised, its wet weight (mg) was determined, and the edema inhibition rate (%) with respect to the control group was calculated.

[3] = test system: Type III allergic conjunctivitis; assay: Type III allergic conjunctivitis in rats (rat antirabbit serum injected subconjunctivally); assay type: in vivo; settings: 5 μl/eye, 6 instillations, 0.1% EPC-Na or 0.1% as dexamethasone, wet weight 0.5 hr after last instillation, mean ± S.D. (n = 4), * p<0.001 vs control
Procedure: The effect of the compound of the invention on Type III allergic conjunctivitis was evaluated.
(1) 0.1% EPC-Na (dissolved in physiological saline)
(2) 0.15% dexamethasone sodium metasulfobenzoate
(Visualin Ophthalmic Solution (registered trademark, Senju Pharmaceutical Co. Ltd.) (0.1% as dexamethasone, hereinafter referred to briefly as dexamethasone)
The rats were divided into three groups, namely a control group, an EPC-Na group and a dexamethasone group, and 30 μl of rat antirabbit serum was injected subconjunctivally at both lids. Two (2), 1.5, and 0.5 hr before subconjunctival injection and 0.5, 1.5, and 2.5 hr after the injection, rats in the control group were topically treated with 5 μl/eye of physiological saline and those in the test groups were similarly treated with 5 μl/eye of the respective test materials. At 0.5 hr after the last instillation, the rats were sacrificed, the edema weight (wet weight/mg) was determined, and the inhibition rate (%) with respect to the control group was calculated.

| Compound | LD50 [1] [mg/kg] | Inhibition rate [2] [%] | Edema weight [2] [mg] | Edema weight [3] [mg] |
| --- | --- | --- | --- | --- |
| Cc1c(C)c2c(c(C)c1OP(=O)(O)OC1=C(O)[C@@H]([C@@H](O)CO)OC1=O)CCC(C)(CCCC(C)CCCC(C)CCCC(C)C)O2 (mixture of isomers) [EPC-K, L-ascorbyl DL-α-tocopheryl phosphate potassium] | ≥ 100 | – | – | – |
| Cc1c(C)c2c(c(C)c1OP(=O)(O)OC1=C(O)[C@@H]([C@@H](O)CO)OC1=O)CCC(C)(CCCC(C)CCCC(C)CCCC(C)C)O2 (mixture of isomers) [EPC-Na, L-ascorbyl DL-α-tocopheryl phosphate sodium] | – | 33.5 | 76.1 ± 11.6 | 57.4 ± 8.1 |
| C[C@@H]1C[C@H]2[C@@H]3CCC4=CC(=O)C=C[C@]4(C)[C@@]3(F)[C@@H](O)C[C@]2(C)[C@@]1(O)C(=O)COC(=O)c1cccc(S(=O)(=O)O)c1 [Dexamethasone, dexamethasone sodium metasulfobenzoate, reference compound] | – | – | – | 58.2 ± 3.8 |
| CN(C)CCOC(c1ccccc1)c1ccccc1 [Diphenhydramine HCl, diphenhydramine hydrochloride, reference compound] | – | 44.8 | 63.2 ± 8.2 | – |
